US20120129897A1, “BIS HETEROARYL INHIBITORS OF PRO-MATRIX METALLOPROTEINASE ACTIVATION” (priority 2010, published 2012)

How the values were obtained:
[1] = tested on: female Lewis rats with SCW-induced arthritis; experiment: Efficacy in rats with SCW-induced arthritis (ankle thickness, clinical scores); type: in vivo, rat; settings: 5, 20, 50 mg/kg BID oral, Day 18-26
Source text: A polyarthritis can be induced in female Lewis rats following i.p. administration of streptococcal cell wall (SCW) […] (PG-PS) (J Exp Med 1977; 146:1585-1602). The model has an acute phase (days 3-7) that is complement and neutrophil-dependent and that resolves. A chronic erosive phase begins at about day ten and is dependent on the development of specific T cell immunity to the PG-GS, which resists digestion and remains present in synovial macrophages for months. Like rheumatoid arthritis, SCW-induced arthritis is reduced by TNF inhibitors, and the dependence of SCW-induced arthritis on macrophages (Rheumatology; 2001; 40:978-987) and the strong association of rheumatoid arthritis severity with synovial-tissue macrophage counts (Ann Rheum Dis; 2005; 64:834-838) makes SCW-arthritis an attractive model for testing potential therapeutic agents. SCW PG-PS 10S (Beckton Dickinson Cat#210866) suspended in saline was vortexed for 30 seconds and sonicated for 3 min with a probe type sonicator prior to injection. […]
To induce arthritis, Female Lewis (LEW/N) rats, 5-6 weeks of age (80-100 g) were injected (i.p.) with SCW PG-PS as described above. […] Each ankle was measured 3 times and averaged, and treatment groups were randomized based on ankle thickness (Table 6). […]

[2] = molecular target: T1, MMP9 mediated gelatinase activity (Rattus norvegicus, UniProt P50282); experiment: In situ zymography of gelatinase activity in livers of SCW-induced rats dosed with compound; type: in vivo; settings: for Intensity (RLU × 10^6), Mean / Intensity (RLU × 10^6), Rat 1 / Intensity (RLU × 10^6), Rat 2 / Intensity (RLU × 10^6), Rat 3: Day 25-28, liver
T1 construct: from tissue; host or cells: frozen liver sections, female Lewis rats
Source text: In situ zymography provides an alternative approach to assess active MMP9 in tissues (Frederiks). Tissue sections are overlain with fluorescene-conjugated gelatin wherein the conjugation is sufficiently dense to cause the fluorescene to be dye-quenched (DQ). Proteolytic degradation of the DQ-gelatin releases the fluorescene from the quenching effect giving rise to bright green fluorescence at the site of degradation. Because in situ zymography requires the use of frozen sections, calcified tissues are problematic. However, an additional feature of the SCW arthritis model is the development of hepatic granulomatous disease (J Immunol; 1986; 137:2199-2209), and MMP9 reportedly plays a role in macrophage recruitment in the granulomas response to mycobacteria (Infect Immun; 2006; 74:6135-6144). Consequently, granulomatous livers from SCW-treated rats were assessed for active MMP9 by in situ zymography.
As described above, Female Lewis (LEW/N) rats, 5-6 weeks of age (80-100 g) were injected (i.p.) with saline or SCW PG-PS. On day 28, when the granulomatous response was well established, animals were sacrificed and livers were frozen in OCT cryo-sectioning medium and […] sections were cut on a Cryome HM 500 M cryotome and mounted on glass microscope slides. Sections were air dried briefly. MMP9 was confirmed as the source of the gelatinase activity in the liver by treating liver sections with monoclonal antibodies directed against the active site of the two major gelatinases MMP9 and MMP2. Liver sections overlain with 50 μL of 100 μg/mL neutralizing mouse monoclonal antibodies directed against MMP9 (Calbiochem, clone 6-6B), or MMP2 (Millipore, clone CA-4001), or with PBS for 1 hr at room temperature. Tissues were rinsed once with PBS, blotted, and briefly air dried and then overlain with DQ-gelatin (Invitrogen) dissolved to 1 mg/mL in deionized water and then diluted 1:10 in 1% wt/vol low gelling point agarose type VII (Sigma) in PBS. The sections were covered with coverslips, incubated in the dark at room temperature for 20 min, and imaged on an Olympus IX80 inverted microscope fitted with fluorescence optics, using SlideBook™ imaging software (Intelligent Imaging Innovations, Inc., Philadelphia, Pa.; version 5.0). Fluorescence intensity was determined (Table 8). When compared to a saline-treated rat, gelatinase activity was abundantly expressed in granulomatous liver sections obtained from a rat with SCW arthritis.
Next, liver in situ zymography was used to assess the relative presence of active MMP9 in rats dosed with vehicle vs. Compound-α. Female Lewis (LEW/N) rats, 5-6 weeks of age (80-100 g) were injected (i.p.) with saline or SCW PG-PS. Commencing on day 25, randomized groups of rats (n=3 rats/group) received vehicle or 20 or 50 mg/kg Compound-α BID by oral gavage. Vehicle consisted of an aqueous mixture containing 2% (v:v) N-methylpyrrolidone, 5% (v:v) glycerine, and 20% (w:v) captisol. Treatment continued daily through the morning of day 28. Four hrs after the AM dose on day 28, rats were sacrificed and livers assessed for active MMP9 by in situ zymography (Table 9). Gelatinase activity was increased markedly in SCW-induced rats, but activity was reduced by approximately 80% in animals treated with 50 mg/kg Compound-α.

T1 sequence (P50282 108-708): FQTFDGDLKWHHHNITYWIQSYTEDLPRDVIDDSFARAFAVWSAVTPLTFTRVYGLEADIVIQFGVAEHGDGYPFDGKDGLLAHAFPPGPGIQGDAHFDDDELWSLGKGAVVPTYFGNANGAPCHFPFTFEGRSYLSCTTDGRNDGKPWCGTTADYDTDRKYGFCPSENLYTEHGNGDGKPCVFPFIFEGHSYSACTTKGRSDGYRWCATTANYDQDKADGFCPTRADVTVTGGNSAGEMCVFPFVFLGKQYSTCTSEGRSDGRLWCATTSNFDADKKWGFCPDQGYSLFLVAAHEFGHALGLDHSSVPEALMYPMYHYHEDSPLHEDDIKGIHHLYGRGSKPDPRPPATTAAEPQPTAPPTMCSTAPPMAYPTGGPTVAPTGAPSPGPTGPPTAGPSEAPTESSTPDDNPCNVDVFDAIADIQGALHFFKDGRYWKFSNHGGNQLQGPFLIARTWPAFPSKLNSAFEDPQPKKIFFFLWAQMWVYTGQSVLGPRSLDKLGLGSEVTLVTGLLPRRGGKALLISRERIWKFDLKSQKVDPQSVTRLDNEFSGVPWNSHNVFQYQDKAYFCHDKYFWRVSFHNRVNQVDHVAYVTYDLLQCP

- Intensity (RLU × 10^6), Mean ([2]; 20 mg/kg BID oral): 55.2 RLU × 10^6
- Intensity (RLU × 10^6), Rat 1 ([2]; 20 mg/kg BID oral): 43.0 RLU × 10^6
- Intensity (RLU × 10^6), Rat 2 ([2]; 20 mg/kg BID oral): 69.0 RLU × 10^6
- Intensity (RLU × 10^6), Rat 3 ([2]; 20 mg/kg BID oral): 53.7 RLU × 10^6
- Reduction of liver gelatinase activity ([2]; 50 mg/kg BID oral, Day 25-28): approximately 80%
- Intensity (RLU × 10^6), Mean ([2]; 50 mg/kg BID oral): 11.1 RLU × 10^6
- Intensity (RLU × 10^6), Rat 1 ([2]; 50 mg/kg BID oral): 3.2 RLU × 10^6
- Intensity (RLU × 10^6), Rat 2 ([2]; 50 mg/kg BID oral): 25.6 RLU × 10^6
- Intensity (RLU × 10^6), Rat 3 ([2]; 50 mg/kg BID oral): 4.5 RLU × 10^6
SMILES: Cc1nc(C)c(-c2csc(Nc3cc(S(N)(=O)=O)ccc3OC(C)C)n2)s1 [Compound-α, 3-(2′,4′-Dimethyl-[4,5′]bithiazolyl-2-ylamino)-4-isopropoxy-benzenesulfonamide.HBr]
- Ankle thickness measurements, effect of treatment [1]: dose-dependent decrease in ankle thickness measurements
- Clinical score measurements, effect of treatment [1]: dose dependent decrease in clinical score measurements
